From patent US9464064B2, “HCV helicase inhibitors and methods of use thereof” (University of Kansas, priority 2011, dated 2016)
Non-standard residues stand in square brackets, D forms with d. Residues, ends and D or L forms follow the SMILES beside them. ξ: configuration not given here. *: point of attachment. ξNMe2Val = CC(C)C(C(=O)*)N(C)C; NMeV = CN[CH](C(=O)O)C(C)C; NHBn = c1ccc(CN*)cc1

Target: T1, HCV NS3 helicase NS3h_1b(con1) (Hepatitis C virus genotype 1b, UniProt Q9WMX2)
T1 construct: truncated C-terminally His-tagged NS3 proteins lacking the N-terminal protease, called NS3h; His-tag (C); made in house
T1 sequence (Q9WMX2 1192-1657): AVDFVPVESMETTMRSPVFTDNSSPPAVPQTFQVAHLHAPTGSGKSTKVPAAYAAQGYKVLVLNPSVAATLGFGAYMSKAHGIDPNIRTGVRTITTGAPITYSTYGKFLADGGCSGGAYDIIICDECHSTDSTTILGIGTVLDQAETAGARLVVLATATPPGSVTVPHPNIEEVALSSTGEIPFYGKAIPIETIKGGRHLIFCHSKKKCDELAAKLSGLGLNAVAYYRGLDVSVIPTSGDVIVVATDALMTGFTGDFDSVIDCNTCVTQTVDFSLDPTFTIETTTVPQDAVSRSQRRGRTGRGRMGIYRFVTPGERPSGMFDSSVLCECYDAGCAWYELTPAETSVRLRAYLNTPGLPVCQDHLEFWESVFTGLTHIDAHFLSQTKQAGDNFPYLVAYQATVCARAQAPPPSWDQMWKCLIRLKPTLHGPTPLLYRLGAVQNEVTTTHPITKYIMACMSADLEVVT
Experiment: MBHA screen of NCI mechanistic set library at 20 μM (percent inhibition, compound interference)
Assay type: biochemical
Conditions: compounds at 20 μM; for Inh. (%) (Inhibition): calculated from Equation 1
Outline: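 Molecular beacon-based DNA unwinding assay; compounds screened at 20 μM in triplicate, with DMSO-only negative and 500 nM dT20 positive controls. Fluorescence (ex 643/em 670 nm) was read before and 30 min after adding ATP to 1 mM. Percent inhibition came from the change relative to DMSO controls; interference from pre-ATP fluorescence versus DMSO controls.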

[1] = MBHA with DNA substrate, assay interference calculated with Equation 2
[2] = assay interference calculated with Equation 2 (fluorescence vs DMSO-only controls before ATP)

SMILES | Int.* (Ratio) (Interference) [1] | Inh. (%) (Inhibition) (MBHA with DNA substrate) | Inh. (%) (Inhibition) (MBHA with a DNA substrate) | Int.* (Ratio) (Interference) [2]
O=C1Nc2c(Cl)cc(Cl)cc2C1=O [Compound 26045] | 0.92 Ratio | −13.7% | – | –
CN(C)CCOc1ccc(I)cc1Cc1ccccc1.Cl [Compound 11930] | 1.10 Ratio | −18.9% | – | –
CC(=O)OCCN1c2ccccc2Sc2cnccc21 [Compound 168221] | 0.96 Ratio | −12.6% | – | –
COc1cc([C@@H]2c3cc4c(c(O)c3C[C@H]3COC(=O)[C@@H]32)OCO4)cc(OC)c1O [Compound 24817] | 0.99 Ratio | 15.4% | – | –
O=C1NC(c2cccc3ccccc23)Nc2ccc(Cl)cc21 (stereo not drawn) [Compound 175636] | – | – | −5.0% | 0.96 Ratio
CC1(O)C=CC(=O)C=C1 [Compound 295156] | – | – | 9.0% | 0.99 Ratio
CC(C)C1=CC2=CC[C@@H]3[C@](C)(CCC[C@@]3(C)C(=O)O)[C@H]2CC1 [Compound 25149] | 0.93 Ratio | −11.6% | – | –
Cl.O=C1c2cccc(NCCCNCCO)c2C(=O)c2cccc(NCCCNCCO)c21 [Compound 363998] | 0.17 Ratio | 138.7% | – | –
CC(C)C(NC(=O)C(C(C)C)N(C)C)C(=O)N(C)C(C(=O)N1CCCC1C(=O)N1CCCC1C(=O)NCc1ccccc1)C(C)C.Cl (stereo not drawn) [Compound 669356] (ξNMe2Val-V[NMeV]PP-NHBn; configuration not given here) | 1.08 Ratio | −9.2% | – | –
COC(=O)C1C(O)C(C)C(O)C(C)/C=C\C=C(C)C(=O)Nc2c(C)c(OC(C)=O)c3c(c2O)C(=O)C(C)=C2OCOC(=C23)C(C)=CC(C)(O)C(O)C(C)C1O (stereo not drawn) [Compound 19990] | 0.96 Ratio | 25.1% | – | –
NC(=O)OCc1c(O)c2c(c(O)c1COC(N)=O)C(=O)C=CC2=O [Compound 224124] | 0.93 Ratio | 37.7% | – | –
CC(C)(C)CC(C)(C)NCC(O)COc1ccc(C(C)(C)c2ccc(OCC(O)CNC(C)(C)CC(C)(C)C)cc2)cc1.Cl (stereo not drawn) [Compound 145366] | 0.53 Ratio | 33.1% | – | –
CCOC(=O)CCn1ncc(Cl)c(Cl)c1=O [Compound 634471] | 1.06 Ratio | 2.3% | – | –
COc1cc2cc(c1Cl)N(C)C(=O)C[C@H](OC(=O)[C@H](C)N(C)C(C)=O)[C@]1(C)O[C@H]1[C@H](C)[C@@H]1C[C@@](O)(NC(=O)O1)[C@H](OC)/C=C/C=C(\C)C2 [Compound 153858] | 0.95 Ratio | 0.3% | – | –
O=[n+]1c2c(n([O-])c3ccccc31)-c1cccc3cccc-2c13 [Compound 60309] | 0.93 Ratio | 13.6% | – | –
Cc1ccc(Cl)c2c(N=Nc3ccccc3[N+](=O)[O-])c(O)[nH]c12 [Compound 118735] | – | – | −5.2% | 0.96 Ratio
CCCCCCCCCCCCCCCCCCOCC(COP(=O)([O-])OCC[N+](C)(C)C)OC (stereo not drawn) [Compound 324368] | 0.85 Ratio | −15.0% | – | –
O=C([O][Hg][CH2]C1COC([CH2][Hg][O]C(=O)c2ccccc2)CO1)c1ccccc1 (stereo not drawn) [Compound 30916] | 0.93 Ratio | 19.0% | – | –
CC(Cc1ccccc1)NC1=NCCO1 (stereo not drawn) [Compound 664298] | – | – | 9.8% | 0.96 Ratio
Cn1cnc([N+](=O)[O-])c1Sc1nnnn1-c1ccccc1 [Compound 631152] | 0.94 Ratio | −7.3% | – | –
CSc1ccc(NC(=O)CCl)cc1 [Compound 166464] | 1.00 Ratio | 3.7% | – | –
